Data set [1] has as its target T1, human carbonic anhydrase II (hCA II) (Homo sapiens, UniProt P00918).
T1 construct: from tissue
The data set can be described thus: hCA II inhibition assay (Maren method, CO2 hydration). The class given is biochemical. The conditions noted are these: purified human erythrocyte hCA II, CO2 as substrate. Here is the method: (§1) Blood samples (25 mL) were taken from healthy human volunteers. They were anticoagulated with acid-citrate-dextrose and centrifuged at 2000 g for 20 min at 4°C and the supernatant was removed. The packed erythrocytes were washed three times with 0.9% NaCl and then haemolysed in cold water. The ghosts and any intact cells were removed by centrifugation at 2000 g for 25 min at 4°C, and the pH of the haemolysate was adjusted to pH 8.5 with solid Tris-base. The 25 mL haemolysate was applied to an affinity column containing L-tyrosine-sulfonamide-sepharose-4B [21] equilibrated with 25 mM Tris-HCl/0.1 M Na2SO4 (pH 8.5). The affinity gel was washed with 50 mL of 25 mM Tris-HCl/22 mM Na2SO4 (pH 8.5). The hCA isozymes were then eluted with 0.1 M NaCl/25 mM Na2HPO4 (pH 6.3) and 0.1 M CH3COONa/0.5 M NaClO4 (pH 5.6), which recovered hCA I and hCA II, respectively. Fractions of 3 mL were collected and their absorbance was measured at 280 nm.
(§2) CA activity was measured by the Maren method which is based on determination of the time required for the pH to decrease from 10.0 to 7.4 due to CO2 hydration. The assay solution was 0.5 M Na2CO3/0.1 M NaHCO3 (pH 10.0) and Phenol Red was added as the pH indicator. CO2-hydratase activity (enzyme units (EU)) was calculated by using the equation t 0 − t c/t c, where t 0 and t c are the times for pH change of the nonenzymatic and the enzymatic reactions, respectively.
(§3) For the inhibition studies of indolylchalcone and pyrido[2,3-d]pyrimidine derivatives, different concentrations of these compounds were added to the enzyme. Activity percentage values of CA for different concentrations of each pyrimidine derivatives were determined by regression analysis using Microsoft Office 2000 Excel. CA enzyme activity without these compounds was accepted as 100% activity.

In data set [2] the target is T2, human carbonic anhydrase I (hCA I) (Homo sapiens, UniProt P00915).
T2 construct: from tissue
T2 sequence (P00915 whole entry): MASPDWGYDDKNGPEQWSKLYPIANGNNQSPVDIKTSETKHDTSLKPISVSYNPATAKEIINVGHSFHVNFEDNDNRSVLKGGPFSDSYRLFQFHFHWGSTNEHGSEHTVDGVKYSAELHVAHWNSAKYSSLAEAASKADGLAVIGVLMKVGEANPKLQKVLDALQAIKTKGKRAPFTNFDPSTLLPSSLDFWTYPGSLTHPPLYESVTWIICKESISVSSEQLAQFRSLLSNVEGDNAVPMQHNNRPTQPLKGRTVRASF
The experiment in a line: hCA I inhibition assay (Maren method, CO2 hydration). In kind it is biochemical. The conditions noted are these: purified human erythrocyte hCA I, CO2 as substrate. Here is the method:
as §1, §2, §3

The term IC50 denotes the concentration needed to halve the response being measured. One may read the melting point as the temperature of the solid-liquid transition. In turn, `COc1ccc(C(=O)/C=C/c2cn(C)c3ccccc23)cc1OC` [Compound 5a, (E)-1-(3,4-Dimethoxyphenyl)-3-(1-methyl-1H-indol-3-yl) prop-2-en-1-one] had a melting point of 271 °C. Moreover, inhibition in data set [1] was half-maximal at 8.88 µM (IC50). Moreover, the IC50 in data set [2] turned out to be 8.34 µM.
Compound `COc1ccc(C(=O)/C=C/c2cn(C)c3ccccc23)cc1` [Compound 5b, (E)-1-(4-Methoxyphenyl)-3-(1-methyl-1H-indol-3-yl) prop-2-en-1-one] yielded a melting point of 254 °C. This compound showed a half-inhibitory concentration (IC50) in data set [1] of 10.3 µM. This compound yielded an IC50 in data set [2] of 7.42 µM.
For the compound `Cc1ccc(C(=O)/C=C/c2cn(C)c3ccccc23)cc1` [Compound 5c, (E)-3-(1-Methyl-1H-indol-3-yl)-1-p-tolylprop-2-en-1-One], the melting point stood at 240 °C. The compound further came in with an IC50 in data set [1] of 12.3 µM. Half-maximal inhibition in data set [2] (IC50) was put at 13.1 µM.
As to `Cn1cc(/C=C/C(=O)c2ccc(Cl)cc2)c2ccccc21` [Compound 5d, (E)-1-(4-Chlorophenyl)-3-(1-methyl-1H-indol-3-yl)prop-2-en-1-one], the melting point came to 248 °C. This compound returned an IC50 in data set [1] of 8.26 µM. The compound also gave an IC50 in data set [2] of 8.2 µM.
Regarding `Cn1cc(/C=C/C(=O)c2ccccc2)c2ccccc21` [Compound 5e, (E)-3-(1-Methyl-1H-indol-3-yl)-1-phenylprop-2-en-1-one], the results for the IC50 in data set [1] and in data set [2] were 9.15 µM and 12.8 µM, respectively.
`Cn1cc(/C=C/C(=O)c2ccc([N+](=O)[O-])cc2)c2ccccc21` [Compound 5f, (E)-3-(1-Methyl-1H-indol-3-yl)-1-(4-nitrophenyl)prop-2-en-1-one] registered a melting point of 278 °C. In data set [1], this compound had an IC50 of 9.31 µM. This compound also came in with an IC50 in data set [2] of 10.9 µM.
In the case of `Cn1cc(/C=C/C(=O)c2cccc([N+](=O)[O-])c2)c2ccccc21` [Compound 5g, (E)-3-(1-Methyl-1H-indol-3-yl)-1-(3-nitrophenyl)prop-2-en-1-one], the melting point is 267 °C. Also, half-maximal inhibition in data set [1] (IC50) required 7.22 µM. In data set [2], this compound registered an IC50 of 8.38 µM.
The corresponding values for `COc1ccc(-c2cc(-c3cn(C)c4ccccc34)c3c(=O)[nH]c(=O)n(C)c3n2)cc1OC` [Compound 7a, 7-(3,4-Dimethoxyphenyl)-1-methyl-5-(1-methyl-1H-indol-3-yl)pyrido[2,3-d]pyrimidine-2,4(1H,3H)-dione] are 333 to 334 °C, 19.4 µM and 16.3 µM.
For the compound `Cc1ccc(-c2cc(-c3cn(C)c4ccccc34)c3c(=O)[nH]c(=O)n(C)c3n2)cc1` [Compound 7b, 1-Methyl-5-(1-methyl-1H-indol-3-yl)-7-p-tolylpyrido[2,3-d]pyrimidine-2,4(1H,3H)-dione], the melting point lay within 399 to 400 °C. Moreover, the IC50 in data set [1] worked out at 12.1 µM. In data set [2], this compound displayed an IC50 of 11.6 µM.
As to `Cn1cc(-c2cc(-c3ccc(Cl)cc3)nc3c2c(=O)[nH]c(=O)n3C)c2ccccc21` [Compound 7c, 7-(4-Chlorophenyl)-1-methyl-5-(1-methyl-1H-indol-3-yl)pyrido[2,3-d]pyrimidine-2,4(1H,3H)-dione], the melting point fell in the range of 385 to 389 °C. 31.1 µM corresponded to half-maximal inhibition in data set [1] (IC50). In data set [2], this compound had an IC50 of 21.1 µM.
`Cn1cc(-c2cc(-c3cccc([N+](=O)[O-])c3)nc3c2c(=O)[nH]c(=O)n3C)c2ccccc21` [Compound 7d, 1-Methyl-5-(1-methyl-1H-indol-3-yl)-7-(3-nitrophenyl)pyrido[2,3-d]pyrimidine-2,4(1H,3H)-dione] returned a melting point of 397 °C. The same compound registered an IC50 in data set [1] of 13.7 µM. This compound displayed an IC50 in data set [2] of 12.1 µM.
For `COc1ccc(-c2cc(-c3cn(C)c4ccccc34)c3c(=O)n(C)c(=O)n(C)c3n2)cc1OC` [Compound 7e, 7-(3,4-Dimethoxyphenyl)-1,3-dimethyl-5-(1-methyl-1H-indol-3-yl)pyrido[2,3-d]pyrimidine-2,4(1H,3H)-dione], the melting point is 340 to 341 °C. In data set [1], this compound returned an IC50 of 8.06 µM. The IC50 in data set [2] was 6.79 µM.
`COc1ccc(-c2cc(-c3cn(C)c4ccccc34)c3c(=O)n(C)c(=O)n(C)c3n2)cc1` [Compound 7f, 7-(4-Methoxyphenyl)-1,3-dimethyl-5-(1-methyl-1H-indol-3-yl)pyrido[2,3-d]pyrimidine-2,4(1H,3H)-dione] had a melting point of 335.7 to 336 °C. The compound further showed an IC50 in data set [1] of 25.4 µM. The compound also had an IC50 in data set [2] of 26.2 µM.
For the compound `Cc1ccc(-c2cc(-c3cn(C)c4ccccc34)c3c(=O)n(C)c(=O)n(C)c3n2)cc1` [Compound 7g, 1,3-Dimethyl-5-(1-methyl-1H-indol-3-yl)-7-p-tolylpyrido[2,3-d]pyrimidine-2,4(1H,3H)-dione], the melting point was in the range of 340 to 341 °C. Besides, the IC50 in data set [1] stood at 7.57 µM. Half-maximal inhibition in data set [2] (IC50) was put at 7.61 µM.
`Cn1c(=O)c2c(-c3cn(C)c4ccccc34)cc(-c3ccc(Cl)cc3)nc2n(C)c1=O` [Compound 7h, 7-(4-Chlorophenyl)-1,3-dimethyl-5-(1-methyl-1H-indol-3-yl)pyrido[2,3-d]pyrimidine 2,4(1H,3H)-dione] yielded a melting point of 358 to 359 °C. This compound also had an IC50 in data set [1] of 24.7 µM. In data set [2], half-maximal inhibition (IC50) was put at 12.4 µM.
For `Cn1c(=O)c2c(-c3cn(C)c4ccccc34)cc(-c3ccccc3)nc2n(C)c1=O` [Compound 7i, 1,3-Dimethyl-5-(1-methyl-1H-indol-3-yl)-7-phenylpyrido[2,3-d]pyrimidine-2,4(1H,3H)-dione], in that order: 320 °C, 8.14 µM and 8.72 µM.
`Cn1c(=O)c2c(-c3cn(C)c4ccccc34)cc(-c3ccc([N+](=O)[O-])cc3)nc2n(C)c1=O` [Compound 7j, 1,3-Dimethyl-5-(1-methyl-1H-indol-3-yl)-7-(4-nitrophenyl)pyrido[2,3-d]pyrimidine-2,4(1H,3H)-dione] returned a melting point of 347 to 349 °C. In data set [1], half-maximal inhibition (IC50) was put at 9.56 µM. In addition, in data set [2], the IC50 turned out to be 10.2 µM.
`Cn1c(=O)c2c(-c3cn(C)c4ccccc34)cc(-c3cccc([N+](=O)[O-])c3)nc2n(C)c1=O` [Compound 7k, 1,3-Dimethyl-5-(1-methyl-1H-indol-3-yl)-7-(3-nitrophenyl)pyrido[2,3-d]pyrimidine-2,4(1H,3H)-dione] had a melting point of 349 to 350 °C. This compound registered an IC50 in data set [1] of 26.7 µM. For the same compound, in data set [2], the IC50 is 22.3 µM.

These data come from paper PMC4139024, “Synthesis and In Vitro Inhibition Effect of New Pyrido[2,3-d]pyrimidine Derivatives on Erythrocyte Carbonic Anhydrase I and II” (BioMed Research International, 2014).
